Reference: US8415342B2, “Besifloxacin ophthalmic composition for the treatment or control of infection” (Bausch & Lomb Incorporated, priority 2008, dated 2013)
In brackets after ≈: the same amount, converted by molar mass. Read-outs that look alike come from different tables or passages of the source.

Legend:
Assay type in all cases: cell-based
Anaerobic Bacteria = assay: MIC against anaerobic bacteria (Table 7)
[1] = tested on: Staphylococcus epidermidis; assay: MIC, CLSI broth microdilution, clinical isolates; details: for MIC50: Staphylococcus epidermidis
Morganella morganii = assay: MIC, CLSI broth microdilution, clinical isolates; details: Morganella morganii (N = 51)
[2] = tested on: Lancefield group C, F, G streptococci; assay: MIC, CLSI broth microdilution, clinical isolates; details: G streptococci (N = 50)
Haemophilus influenzae = assay: MIC, CLSI broth microdilution, clinical isolates; details: for MIC50 / MIC90: Haemophilus influenzae
Streptococcus pneumoniae = assay: MIC, CLSI broth microdilution, clinical isolates
Citrobacter koseri = assay: MIC, CLSI broth microdilution, clinical isolates; details: Citrobacter koseri (N = 100)
S. epidermidis = assay: MIC of clinical trial isolates, Studies 373, 433, 434; details: Staphylococcus epidermidis
Legionella pneumophila = assay: microbe, parasite or virus in culture
[3] = tested on: Staphylococcus saprophyticus; assay: MIC, CLSI broth microdilution, clinical isolates; details: Staphylococcus saprophyticus (N = 101)
S. aureus = assay: MIC of clinical trial isolates, Studies 373, 433, 434; details: Staphylococcus aureus
[4] = tested on: Staphylococcus haemolyticus; assay: MIC, CLSI broth microdilution, clinical isolates; details: Staphylococcus haemolyticus (N = 101)
[5] = Staphylococcus epidermidis (CNS, N = 6)
[6] = Staphylococcus epidermidis (CS, N = 9)
[7] = Staphylococcus epidermidis (MSSE, N = 6)
[8] = Staphylococcus epidermidis (all phenotypes, N = 15)
[9] = Haemophilus influenzae (all phenotypes, N = 40)
[10] = Haemophilus influenzae (bla negative, N = 24)
[11] = Haemophilus influenzae (bla positive, N = 16)
[12] = Streptococcus pneumoniae (PSSP, N = 31)

`N[C@@H]1CCCCN(c2c(F)cc3c(=O)c(C(=O)O)cn(C4CC4)c3c2Cl)C1` [Besifloxacin, (R)-(+)-(3-amino-2,3,4,5,6,7-hexahydro-1H-azepin-1-yl)-8-chloro-1-cyclopropyl-6-fluoro-1,4,-dihydro-4-oxo-3-quinolinecarboxylic acid] was tested, and the MIC90 (Anaerobic Bacteria; Prevotella spp. (N = 20), read-out: MIC90) was 4 µg/mL (≈ 10.2 µM), the “MIC Range” value (Anaerobic Bacteria; Propionibacterium acnes (N = 21)) was 0.12 to 0.25 µg/mL and the “MIC Range” value [1, 5] was 0.25 to 4 µg/mL. For the same molecule, the “MIC Range” value [1, 6] was 0.015 to 0.03 µg/mL, the “MIC Range” value ([1]; Staphylococcus epidermidis (MRSE, N = 9)) was 0.015 to 4 µg/mL and the “MIC Range” value [1, 7] was 0.015 to 0.25 µg/mL. The MIC90 [1, 8] was 4 µg/mL (≈ 10.2 µM), the “MIC Range” value [1, 8] was 0.015 to 4 µg/mL and the MIC50 ([1]; MRSE, Staphylococcus epidermidis (MRSE, N = 9)) was 0.25 µg/mL (≈ 0.635 µM). The MIC50 [1, 5] was 0.25 µg/mL (≈ 0.635 µM), the MIC50 [1, 6] was 0.03 µg/mL (≈ 0.0762 µM) and the MIC50 [1, 7] was 0.03 µg/mL (≈ 0.0762 µM). It also gave an MIC50 [1, 8] of 0.03 µg/mL (≈ 0.0762 µM), an MIC50 (Morganella morganii) of 0.12 µg/mL (≈ 0.305 µM) and an MIC90 (Morganella morganii) of 4 µg/mL (≈ 10.2 µM). The “MIC Range” value [2] was 0.015 to 0.25 µg/mL, the MIC50 ([2]; read-out: MIC50) was 0.03 µg/mL (≈ 0.0762 µM) and the MIC90 ([2]; read-out: MIC90) was 0.06 µg/mL (≈ 0.152 µM). For the same molecule, the “MIC Range” value (Haemophilus influenzae; [9]) was “≦0.004-0.03 μg/mL”, the “MIC Range” value (Haemophilus influenzae; [10]) was “≦0.004-0.03 μg/mL” and the “MIC Range” value (Haemophilus influenzae; [11]) was 0.008 to 0.03 µg/mL. The MIC50 (Haemophilus influenzae; [9]) was 0.015 µg/mL (≈ 0.0381 µM), the MIC90 (Haemophilus influenzae; [9]) was 0.015 µg/mL (≈ 0.0381 µM) and the MIC50 (Haemophilus influenzae; [10]) was 0.015 µg/mL (≈ 0.0381 µM). The MIC90 (Haemophilus influenzae; [10]) was 0.015 µg/mL (≈ 0.0381 µM), the MIC50 (Haemophilus influenzae; [11]) was 0.015 µg/mL (≈ 0.0381 µM) and the MIC90 (Haemophilus influenzae; [11]) was 0.03 µg/mL (≈ 0.0762 µM). The “MIC Range” value (Streptococcus pneumoniae; Streptococcus pneumoniae (PISP, N = 2)) was 0.06 to 0.12 µg/mL, the “MIC Range” value (Streptococcus pneumoniae; Streptococcus pneumoniae (PRSP, N = 2)) was 0.03 to 0.06 µg/mL and the MIC50 (Streptococcus pneumoniae; [12]) was 0.06 µg/mL (≈ 0.152 µM). The MIC90 (Streptococcus pneumoniae; [12]) was 0.06 µg/mL (≈ 0.152 µM), the “MIC Range” value (Streptococcus pneumoniae; [12]) was 0.015 to 0.5 µg/mL and the “MIC Range” value (Streptococcus pneumoniae; Streptococcus pneumoniae (all phenotypes, N = 35)) was 0.015 to 0.5 µg/mL. It also gave an MIC50 (Streptococcus pneumoniae; Streptococcus pneumoniae (all phenotypes, N = 35), read-out: MIC50) of 0.06 µg/mL (≈ 0.152 µM), an MIC90 (Streptococcus pneumoniae; Streptococcus pneumoniae (all phenotypes, N = 35), read-out: MIC90) of 0.06 µg/mL (≈ 0.152 µM) and an MIC50 (Citrobacter koseri) of 0.06 µg/mL (≈ 0.152 µM). For the same molecule, the MIC90 (Citrobacter koseri) was 0.25 µg/mL (≈ 0.635 µM), the MIC90 (S. epidermidis; MRSE, S. epidermidis MRSE-CR, N 24, read-out: MIC90) was 4 µg/mL and the MIC90 (S. epidermidis; MRSE, S. epidermidis MRSE-CS, N 27, read-out: MIC90) was 0.06 µg/mL. For the same molecule, the MIC90 (S. epidermidis; S. epidermidis MSSE-CR, N 10, read-out: MIC90) was 1 µg/mL, the MIC90 (S. epidermidis; S. epidermidis MSSE-CS, N 50, read-out: MIC90) was 0.06 µg/mL and the MIC90 (S. epidermidis; isolates of studies 373, 433, 434, read-out: MIC90) was 0.5 µg/mL. For the same molecule, the MIC50 (Legionella pneumophila; Legionella pneumophila) was 0.03 µg/mL (≈ 0.0762 µM), the MIC90 (Legionella pneumophila; Legionella pneumophila) was 0.03 µg/mL (≈ 0.0762 µM) and the “MIC Range” value (Legionella pneumophila; Legionella pneumophila (N = 50)) was 0.015 to 0.06 µg/mL. For the same molecule, the MIC50 [3] was 0.06 µg/mL (≈ 0.152 µM), the MIC90 [3] was 0.12 µg/mL (≈ 0.305 µM) and the “MIC Range” value [3] was 0.015 to 0.25 µg/mL. For the same molecule, the MIC90 (S. aureus; MRSA, S. aureus MRSA-CR, N 17, read-out: MIC90) was 4 µg/mL, the MIC90 (S. aureus; MRSA, S. aureus MRSA-CS, N 9, read-out: MIC90 (due to limited isolates, highest MIC value is given)) was 0.06 µg/mL and the MIC90 (S. aureus; MRSA, Staphylococcus aureus (MRSA-CR), isolates of studies 373, 433, 434, read-out: MIC90) was 4 µg/mL. It also gave an MIC90 (S. aureus; MSSA, S. aureus MSSA-CR, N 17, read-out: MIC90) of 2 µg/mL, an MIC90 (S. aureus; MSSA, S. aureus MSSA-CS, N 144, read-out: MIC90) of 0.06 µg/mL and an MIC90 (S. aureus; MSSA, Staphylococcus aureus (MSSA-CR), isolates of studies 373, 433, 434, read-out: MIC90) of 2 µg/mL. For the same molecule, the MIC90 (S. aureus; Staphylococcus aureus (all phenotypes), isolates of studies 373, 433, 434, read-out: MIC90) was 0.5 µg/mL, the MIC50 [4] was 0.5 µg/mL (≈ 1.27 µM) and the MIC90 [4] was 1 µg/mL (≈ 2.54 µM). The “MIC Range” value [4] was 0.015 to 4 µg/mL.
